Test results from article PMC4130243 (ACS Combinatorial Science, 2014).

Biological target: T1, Mdm4 (Homo sapiens, UniProt O15151)
T1 sequence (O15151 1-490): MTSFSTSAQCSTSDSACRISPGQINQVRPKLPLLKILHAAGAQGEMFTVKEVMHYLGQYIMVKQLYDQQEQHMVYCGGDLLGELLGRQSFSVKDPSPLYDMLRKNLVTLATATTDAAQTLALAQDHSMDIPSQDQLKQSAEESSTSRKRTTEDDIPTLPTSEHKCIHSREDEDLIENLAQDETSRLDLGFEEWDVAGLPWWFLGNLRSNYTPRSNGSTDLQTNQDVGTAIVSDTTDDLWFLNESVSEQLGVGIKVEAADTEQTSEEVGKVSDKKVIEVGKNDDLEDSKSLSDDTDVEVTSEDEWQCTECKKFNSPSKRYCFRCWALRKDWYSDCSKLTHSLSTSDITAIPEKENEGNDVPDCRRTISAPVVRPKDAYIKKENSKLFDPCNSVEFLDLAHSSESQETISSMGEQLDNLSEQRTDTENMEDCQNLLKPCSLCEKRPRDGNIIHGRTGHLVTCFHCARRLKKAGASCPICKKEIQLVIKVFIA
Test: fluorescence polarization assay, p53-Mdm4
Assay type: binding
Settings: FP, resynthesized and purified by flash chromatography

O=C(CN(Cc1ccc(Cl)cc1)C(=O)c1cc2ccccc2[nH]1)NC1CCCCC1 [Compound B1, N-(4-Chlorobenzyl)-N-(2-(cyclohexylamino)-2-oxoethyl)-1H-indole-2-carboxamide]
Ki: 5.5 µM
